We go through 20 compounds from patent US8916573B2, “Quinazoline-2,4-dione derivatives” (Actelion Pharmaceuticals Ltd., priority 2011, dated 2014).

Converted amounts (≈) assume the structure as drawn.

The assay deals with S. aureus 29213. Description: Bacterial growth minimal inhibitory concentrations (microdilution, cation-adjusted Mueller-Hinton Broth, CLSI M7-A7). In kind it is cell-based. As to conditions: Staphylococcus aureus, 29213; microdilution in cation-adjusted Mueller-Hinton Broth. How it is done:
Bacterial Growth Minimal Inhibitory Concentrations: Minimal inhibitory concentrations (MICs; mg/l) were determined in cation-adjusted MuellerHinton Broth by a microdilution method following the description given in “Methods for Dilution Antimicrobial Susceptibility Tests for Bacteria that Grow Aerobically”, Approved standard, 7th ed., Clinical and Laboratory Standards Institute (CLSI) Document M7-A7, Wayne, Pa., USA, 2006. Typical antibacterial test results are given in Table 1 hereafter (MIC in mg/l).
For orientation: In broth dilution the organism is exposed to a series of concentrations in liquid medium.
In turn, `COC(=O)/C=C/c1ccc2c(=O)n(CCNCCC3CN(c4ccc5c(c4)NC(=O)CS5)C(=O)O3)c(=O)n(C)c2c1` (racemic) [Example 63, rac-(E)-3-[1-methyl-2,4-dioxo-3-(2-{2-[2-oxo-3-(3-oxo-3,4-dihydro-2H-benzo[1,4]thiazin-6-yl)-oxazolidin-5-yl]-ethylamino}-ethyl)-1,2,3,4-tetrahydro-quinazolin-7-yl]-acrylic acid methyl ester] registered an MIC of 0.031 µg/mL (≈ 0.0535 µM).
The figure for `Cc1cccc2[nH]c(=O)n(CCC[C@H]3CN(c4ccc5c(c4)NC(=O)CS5)C(=O)O3)c(=O)c12` [Example 7, 5-methyl-3-{3-[(S)-2-oxo-3-(3-oxo-3,4-dihydro-2H-benzo[1,4]-thiazin-6-yl)-oxazolidin-5-yl]-propyl}-1H-quinazoline-2,4-dione] is at most 0.016 µg/mL; for `O=C1COc2ccc(N3C[C@H](CCCn4c(=O)[nH]c5c(Cl)cccc5c4=O)OC3=O)nc2N1` [Example 24, 8-chloro-3-{3-[(S)-2-oxo-3-(3-oxo-3,4-dihydro-2H-pyrido[3,2-b][1,4]oxazin-6-yl)-oxazolidin-5-yl]-propyl}-1H-quinazoline-2,4-dione] it is at most 0.016 µg/mL.
Next, `Cc1cccc2c(=O)n(CCC[C@H]3CN(c4ccc5c(c4)NC(=O)CS5)C(=O)O3)c(=O)[nH]c12` [Example 13, 8-methyl-3-{3-[(S)-2-oxo-3-(3-oxo-3,4-dihydro-2H-benzo[1,4]thiazin-6-yl)-oxazolidin-5-yl]-propyl}-1H-quinazoline-2,4-dione]: at most 0.016 µg/mL; `O=C1CSc2ccc(N3C[C@H](CNCCn4c(=O)c5cccc6c5n(c4=O)CCC6)OC3=O)nc2N1` [Example 67, 2-(2-{[(S)-2-oxo-3-(3-oxo-3,4-dihydro-2H-pyrido[3,2-b][1,4]thiazin-6-yl)-oxazolidin-5-ylmethyl]-amino}-ethyl)-6,7-dihydro-5H-pyrido[3,2,1-ij]quinazoline-1,3-dione]: at most 0.016 µg/mL; `O=C1COc2ccc(N3C[C@H](CCCn4c(=O)c5cccc6c5n(c4=O)CCC6)OC3=O)nc2N1` [Example 45, 2-{3-[(S)-2-oxo-3-(3-oxo-3,4-dihydro-2H-pyrido[3,2-b][1,4]oxazin-6-yl)-oxazolidin-5-yl]-propyl}-6,7-dihydro-5H-pyrido[3,2,1-ij]quinazoline-1,3-dione]: at most 0.016 µg/mL.
As for `Cc1ccc2[nH]c(=O)n(CCC[C@@H]3CN(c4ccc5c(c4)NC(=O)CS5)C(=O)O3)c(=O)c2c1` [Example 10, 6-methyl-3-{3-[(R)-2-oxo-3-(3-oxo-3,4-dihydro-2H-benzo[1,4]thiazin-6-yl)-oxazolidin-5-yl]-propyl}-1H-quinazoline-2,4-dione], the MIC is 0.063 µg/mL (≈ 0.135 µM).
With `Cn1c(=O)n(CCC[C@H]2CN(c3ccc4c(c3)NC(=O)CS4)C(=O)O2)c(=O)c2ccccc21` [Example 3, 1-methyl-3-{3-[(S)-2-oxo-3-(3-oxo-3,4-dihydro-2H-benzo[1,4]-thiazin-6-yl)-oxazolidin-5-yl]-propyl}-1H-quinazoline-2,4-dione], the MIC is at most 0.016 µg/mL.
Turning to `C=Cc1ccc2c(=O)n(CCC[C@@H]3CN(c4ccc5c(c4)NC(=O)CS5)C(=O)O3)c(=O)n(C)c2c1` [Example 47, 1-methyl-3-{3-[(R)-2-oxo-3-(3-oxo-3,4-dihydro-2H-benzo[1,4]-thiazin-6-yl)-oxazolidin-5-yl]-propyl}-7-vinyl-1H-quinazoline-2,4-dione], it took 0.063 µg/mL (≈ 0.128 µM) to inhibit growth (MIC).
Turning to `O=C1CSc2ccc(N3C[C@H](CCCn4c(=O)[nH]c5c(Cl)ccc(Cl)c5c4=O)OC3=O)cc2N1` [Example 40, 5,8-dichloro-3-{3-[(S)-2-oxo-3-(3-oxo-3,4-dihydro-2H-benzo[1,4]thiazin-6-yl)-oxazolidin-5-yl]-propyl}-1H-quinazoline-2,4-dione], the MIC was at most 0.016 µg/mL.
Next, `Cn1c(=O)n(CCCC[C@@H]2CN(c3ccc4c(n3)NC(=O)CO4)C(=O)O2)c(=O)c2ccccc21` [Example 52, 1-methyl-3-{4-[(R)-2-oxo-3-(3-oxo-3,4-dihydro-2H-pyrido[3,2-b][1,4]oxazin-6-yl)-oxazolidin-5-yl]-butyl}-1H-quinazoline-2,4-dione]: 0.063 µg/mL (≈ 0.135 µM).
Next, `O=C1CSc2ccc(N3CC(CCCCn4c(=O)[nH]c5ccccc5c4=O)OC3=O)cc2N1` (racemic) [Example 48, rac-3-{4-[2-oxo-3-(3-oxo-3,4-dihydro-2H-benzo[1,4]thiazin-6-yl)-oxazolidin-5-yl]-butyl}-1H-quinazoline-2,4-dione]: 0.031 µg/mL (≈ 0.0664 µM); `Cc1cccc2c(=O)n(CCC[C@@H]3CN(c4ccc5c(c4)NC(=O)CS5)C(=O)O3)c(=O)[nH]c12` [Example 12, 8-methyl-3-{3-[(R)-2-oxo-3-(3-oxo-3,4-dihydro-2H-benzo[1,4]-thiazin-6-yl)-oxazolidin-5-yl]-propyl}-1H-quinazoline-2,4-dione]: at most 0.016 µg/mL; `Cn1c(=O)n(CCNCC[C@@H]2CN(c3ccc4c(c3)NC(=O)CS4)C(=O)O2)c(=O)c2cccc(Cl)c21` [Example 30, 8-chloro-1-methyl-3-(2-{2-[(R)-2-oxo-3-(3-oxo-3,4-dihydro-2H-benzo[1,4]thiazin-6-yl)-oxazolidin-5-yl]-ethylamino}-ethyl)-1H-quinazoline-2,4-dione]: 0.125 µg/mL (≈ 0.236 µM).
Next, `O=C1CSc2ccc(N3C[C@H](CCCn4c(=O)[nH]c5ccc(N6CCCC6)cc5c4=O)OC3=O)cc2N1` [Example 37, 3-{3-[(S)-2-oxo-3-(3-oxo-3,4-dihydro-2H-benzo[1,4]-thiazin-6-yl)-oxazolidin-5-yl]-propyl}-6-pyrrolidin-1-yl-1H-quinazoline-2,4-dione]: 0.5 µg/mL (≈ 0.959 µM); `O=C1COc2ccc(N3C[C@@H](CCCn4c(=O)[nH]c5c(Cl)cccc5c4=O)OC3=O)nc2N1` [Example 23, 8-chloro-3-{3-[(R)-2-oxo-3-(3-oxo-3,4-dihydro-2H-pyrido[3,2-b][1,4]oxazin-6-yl)-oxazolidin-5-yl]-propyl}-1H-quinazoline-2,4-dione]: 0.031 µg/mL (≈ 0.0657 µM); `CC(=O)N(CCn1c(=O)c2ccccc2n(C)c1=O)C[C@@H]1CN(c2ccc3c(n2)NC(=O)CS3)C(=O)O1` [Example 68, N-[2-(1-methyl-2,4-dioxo-1,4-dihydro-2H-quinazolin-3-yl)-ethyl]-N-[(R)-2-oxo-3-(3-oxo-3,4-dihydro-2H-pyrido[3,2-b][1,4]thiazin-6-yl)-oxazolidin-5-ylmethyl]-acetamide]: 0.25 µg/mL (≈ 0.477 µM).
For the compound `O=C1CSc2ccc(N3C[C@H](CCCn4c(=O)c5cccc6c5n(c4=O)CCC6)OC3=O)cc2N1` [Example 44, 2-{3-[(S)-2-oxo-3-(3-oxo-3,4-dihydro-2H-benzo[1,4]thiazin-6-yl)-oxazolidin-5-yl]-propyl}-6,7-dihydro-5H-pyrido[3,2,1-ij]quinazoline-1,3-dione], the MIC is at most 0.016 µg/mL.
For `COc1c(F)c(F)cc2c(=O)n(CCC[C@H]3CN(c4ccc5c(c4)NC(=O)CS5)C(=O)O3)c(=O)n(C3CC3)c12` [Example 43, 1-cyclopropyl-6,7-difluoro-8-methoxy-3-{3-[(S)-2-oxo-3-(3-oxo-3,4-dihydro-2H-benzo[1,4]thiazin-6-yl)-oxazolidin-5-yl]-propyl}-1H-quinazoline-2,4-dione], the MIC is at most 0.016 µg/mL.
As to `Cn1c(=O)n(CCCC[C@@H]2CN(c3ccc4c(n3)NC(=O)CS4)C(=O)O2)c(=O)c2ccccc21` [Example 51, 1-methyl-3-{4-[(R)-2-oxo-3-(3-oxo-3,4-dihydro-2H-pyrido[3,2-b][1,4]thiazin-6-yl)-oxazolidin-5-yl]-butyl}-1H-quinazoline-2,4-dione], the MIC is at most 0.016 µg/mL.

The MIC is the lowest concentration found to suppress growth. Read a low MIC as a more susceptible organism.
